US9169254B2, “Spiroimidazolone derivative” (Chugai Seiyaku Kabushiki Kaisha, priority 2009, dated 2015)

These compounds were tested against T1, human PTH1 receptor (Homo sapiens, UniProt Q03431) (assay: In vitro cAMP signal activity in HKRK-B7 cells (LLC-PK1 cells overexpressing the human PTH1 receptor)). Settings: 0.1 µM.
T1 sequence (Q03431 27-593): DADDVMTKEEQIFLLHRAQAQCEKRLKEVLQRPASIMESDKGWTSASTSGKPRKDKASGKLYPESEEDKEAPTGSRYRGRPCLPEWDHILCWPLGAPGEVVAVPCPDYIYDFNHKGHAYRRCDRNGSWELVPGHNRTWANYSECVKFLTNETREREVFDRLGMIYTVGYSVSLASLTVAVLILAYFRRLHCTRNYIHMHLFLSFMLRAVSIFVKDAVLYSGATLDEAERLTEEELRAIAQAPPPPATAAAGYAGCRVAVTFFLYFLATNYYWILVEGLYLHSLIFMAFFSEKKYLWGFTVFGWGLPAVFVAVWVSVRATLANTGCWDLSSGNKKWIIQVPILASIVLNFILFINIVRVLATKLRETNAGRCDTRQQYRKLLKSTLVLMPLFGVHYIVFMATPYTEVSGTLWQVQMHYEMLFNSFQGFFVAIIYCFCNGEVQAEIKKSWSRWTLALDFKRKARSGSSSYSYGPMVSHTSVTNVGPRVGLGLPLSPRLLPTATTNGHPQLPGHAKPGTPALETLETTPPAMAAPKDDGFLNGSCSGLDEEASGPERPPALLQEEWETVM
Format: cell-based

**Q.** For `Cc1cc(N(C)C(N)=O)cc(C)c1CC[S@TB4](=O)(=O)N1CCC2(CC1)N=C(c1ccc([Si](C)(C)C)cc1)NC2=O` [Compound 1139, 1-(3,5-dimethyl-4-{2-[4-oxo-2-(4-trimethylsilanyl-phenyl)-1,3,8-triaza-spiro[4.5]dec-1-ene-8-sulfonyl]-ethyl}-phenyl)-1-methyl-urea], which “cAMP production activity (%)” value is on record?
**A.** 86%

Same assay, conditions: HKRK-B7 cells; compound at 1×10^−3 M; cAMP produced as percentage of that produced by hPTH(1-34) at 100 nM

**Q.** For `Cc1cc(N(C)C(N)=O)cc(C)c1CC[S@TB3](=O)(=O)N1CCC2(CC1)N=C(C1CC(C(F)(F)F)CC(C(F)(F)F)C1)NC2=O` [Compound 1138, 1-(4-{2-[2-((1R,3R,5S)-3,5-bis-trifluoromethyl-cyclohexyl)-4-oxo-1,3,8-triaza-spiro[4.5]dec-1-ene-8-sulfonyl]-ethyl}-3,5-dimethyl-phenyl)-1-methyl-urea], which “cAMP production activity (%)” value is on record?
**A.** 77%

**Q.** `CCCCCCCCCCCCCC1=NC2(CCN([S@TB18](=O)(=O)CCc3c(C)cc(N(C)C(N)=O)cc3C)CC2)C(=O)N1` [Compound 1140, 1-{3,5-dimethyl-4-[2-(4-oxo-2-tridecyl-1,3,8-triaza-spiro[4.5]dec-1-ene-8-sulfonyl)-ethyl]-phenyl}-1-methyl-urea] was tested. Which “cAMP production activity (%)” value did it give?
**A.** 55%

**Q.** How did the “cAMP production activity (%)” value turn out when `CCCCCCCCCCCC1=NC2(CCN([S@TB17](=O)(=O)CCc3c(C)cc(N(C)C(N)=O)cc3C)CC2)C(=O)N1` [Compound 1141, 1-{3,5-dimethyl-4-[2-(4-oxo-2-undecyl-1,3,8-triaza-spiro[4.5]dec-1-ene-8-sulfonyl)-ethyl]-phenyl}-1-methyl-urea] was run?
**A.** 83%

**Q.** `CCCCCCCCC1=NC2(CCN([S@TB17](=O)(=O)CCc3c(C)cc(N(C)C(N)=O)cc3C)CC2)C(=O)N1` [Compound 1142, 1-{3,5-dimethyl-4-[2-(2-octyl-4-oxo-1,3,8-triaza-spiro[4.5]dec-1-ene-8-sulfonyl)-ethyl]-phenyl}-1-methyl-urea] was tested. Which “cAMP production activity (%)” value did it give?
**A.** 68%

**Q.** With `CCCCCC[C@@H]1CCC[C@H](C2=NC3(CCN(S(=O)(=O)CCc4c(C)cc(N(C)C(N)=O)cc4C)CC3)C(=O)N2)C1` [Compound 1143, 1-(4-{2-[2-((1S,3R)-3-Hexyl-cyclohexyl)-4-oxo-1,3,8-triaza-spiro[4.5]dec-1-ene-8-sulfonyl]-ethyl}-3,5-dimethyl-phenyl)-1-methyl-urea] as the compound, how does the “cAMP production activity (%)” value read?
**A.** 78%

**Q.** With `Cc1cc(N(C)C(N)=O)cc(C)c1CC[S@TB3](=O)(=O)N1CCC2(CC1)N=C(c1cccc(CCC(C)C)c1)NC2=O` [Compound 1144, 1-[3,5-dimethyl-4-(2-{2-[3-(3-methyl-butyl)-phenyl]-4-oxo-1,3,8-triaza-spiro[4.5]dec-1-ene-8-sulfonyl}-ethyl)-phenyl]-1-methyl-urea] as the compound, how does the “cAMP production activity (%)” value read?
**A.** 124%

**Q.** With `CCCC[C@@H]1CCC[C@H](C2=NC3(CCN(S(=O)(=O)CCc4c(C)cc(N(C)C(N)=O)cc4C)CC3)C(=O)N2)C1` [Compound 1145, 1-(4-{2-[2-((1S,3R)-3-butyl-cyclohexyl)-4-oxo-1,3,8-triaza-spiro[4.5]dec-1-ene-8-sulfonyl]-ethyl}-3,5-dimethyl-phenyl)-1-methyl-urea] as the compound, how does the “cAMP production activity (%)” value read?
**A.** 102%

**Q.** Which “cAMP production activity (%)” value does the source give for `Cc1cc(N(C)C(N)=O)cc(C)c1CCS(=O)(=O)N1CCC2(CC1)N=C([C@H]1CCC[C@@H](CCC(C)C)C1)NC2=O` [Compound 1146, 1-[3,5-dimethyl-4-(2-{2-[(1S,3S)-3-(3-methyl-butyl)-cyclohexyl]-4-oxo-1,3,8-triaza-spiro[4.5]dec-1-ene-8-sulfonyl}-ethyl)-phenyl]-1-methyl-urea] here?
**A.** 107%

**Q.** How did the “cAMP production activity (%)” value turn out when `Cc1cc(N(C)C(N)=O)cc(C)c1CC[S@TB4](=O)(=O)N1CCC2(CC1)N=C(CCC(F)(F)CCCCCC(F)(F)F)NC2=O` [Compound 1147, 1-(3,5-dimethyl-4-{2-[4-oxo-2-(3,3,9,9,9-pentafluoro-nonyl)-1,3,8-triaza-spiro[4.5]dec-1-ene-8-sulfonyl]-ethyl}-phenyl)-1-methyl-urea] was run?
**A.** 112%

**Q.** With `[2H]C([2H])([2H])C([2H])([2H])C1=CC[C@H](C2=NC3(CCN([S@TB18](=O)(=O)CCc4c(C)cc(N(C)C(N)=O)cc4C)CC3)C(=O)N2)CC1` [Compound 1149, 1-(4-{2-[2-(4-[1,1,2,2,2-^2H5]ethyl-cyclohex-3-enyl)-4-oxo-1,3,8-triaza-spiro[4.5]dec-1-ene-8-sulfonyl]-ethyl}-3,5-dimethyl-phenyl)-1-methyl-urea] as the compound, how does the “cAMP production activity (%)” value read?
**A.** 98%

**Q.** Which “cAMP production activity (%)” value does the source give for `Cc1cc(N(C)C(N)=O)cc(C)c1CCS(=O)(=O)N1CCC2(CC1)N=C(c1ccc(Cl)c(C(F)(F)F)c1)NC2=O` [Compound 1150, 1-(4-{2-[2-(4-Chloro-3-trifluoromethyl-phenyl)-4-oxo-1,3,8-triaza-spiro[4.5]dec-1-ene-8-sulfonyl]-ethyl}-3,5-dimethyl-phenyl)-1-methyl-urea] here?
**A.** 107%

**Q.** With `Cc1cc(N(C)C(N)=O)cc(C)c1CCS(=O)(=O)N1CCC2(CC1)N=C(C(F)CCCCCCCC(F)(F)F)NC2=O` (stereo not shown) [Compound 1151, 1-(3,5-Dimethyl-4-{2-[4-oxo-2-(1,9,9,9-tetrafluoro-nonyl)-1,3,8-triaza-spiro[4.5]dec-1-ene-8-sulfonyl]-ethyl}-phenyl)-1-methyl-urea] as the compound, how does the “cAMP production activity (%)” value read?
**A.** 105%

**Q.** How did the “cAMP production activity (%)” value turn out when `CCCc1ccc(-c2cccc(C3=NC4(CCN(S(=O)(=O)CCc5c(C)cc(N(C)C(N)=O)cc5C)CC4)C(=O)N3)c2)cc1` [Compound 1152, 1-(3,5-Dimethyl-4-{2-[4-oxo-2-(4′-propyl-biphenyl-3-yl)-1,3,8-triaza-spiro[4.5]dec-1-ene-8-sulfonyl]-ethyl}-phenyl)-1-methyl-urea] was run?
**A.** 0.8%

**Q.** For `Cc1cc(N(C)C(N)=O)cc(C)c1CC[S@TB4](=O)(=O)N1CCC2(CC1)N=C(CCCCCCCCCCCF)NC2=O` [Compound 1153, 1-(4-{2-[2-(11-fluoro-undecyl)-4-oxo-1,3,8-triaza-spiro[4.5]dec-1-ene-8-sulfonyl]-ethyl}-3,5-dimethyl-phenyl)-1-methyl-urea], which “cAMP production activity (%)” value is on record?
**A.** 106%

**Q.** For `CCSCCCCCCC1=NC2(CCN([S@TB18](=O)(=O)CCc3c(C)cc(N(C)C(N)=O)cc3C)CC2)C(=O)N1` [Compound 1154, 1-(4-{2-[2-(6-ethylsulfanyl-hexyl)-4-oxo-1,3,8-triaza-spiro[4.5]dec-1-ene-8-sulfonyl]-ethyl}-3,5-dimethyl-phenyl)-1-methyl-urea], which “cAMP production activity (%)” value is on record?
**A.** 115%

**Q.** With `Cc1cc(N(C)C(N)=O)cc(C)c1CC[S@TB4](=O)(=O)N1CCC2(CC1)N=C(c1cccc(-c3cccc(-c4ccccc4)c3)c1)NC2=O` [Compound 1155, 1-{3,5-dimethyl-4-[2-(4-oxo-2-[1,1′;3′,1″]terphenyl-3-yl-1,3,8-triaza-spiro[4.5]dec-1-ene-8-sulfonyl)-ethyl]-phenyl}-1-methyl-urea] as the compound, how does the “cAMP production activity (%)” value read?
**A.** 83%

**Q.** Which “cAMP production activity (%)” value does the source give for `Cc1cc(N(C)C(N)=O)cc(C)c1CC[S@TB4](=O)(=O)N1CCC2(CC1)N=C(CCCCCCCCCCC(F)F)NC2=O` [Compound 1156, 1-(4-{2-[2-(11,11-difluoro-undecyl)-4-oxo-1,3,8-triaza-spiro[4.5]dec-1-ene-8-sulfonyl]-ethyl}-3,5-dimethyl-phenyl)-1-methyl-urea] here?
**A.** 77%

**Q.** How did the “cAMP production activity (%)” value turn out when `Cc1cc(N(C)C(N)=O)cc(C)c1/C=C/S(=O)(=O)N1CCC2(CC1)N=C(c1cccc(-c3cccc(-c4ccccc4)c3)c1)NC2=O` [Compound 1157, 1-{3,5-Dimethyl-4-[(E)-2-(4-oxo-2-[1,1′;3′,1″]terphenyl-3-yl-1,3,8-triaza-spiro[4.5]dec-1-ene-8-sulfonyl)-vinyl]-phenyl}-1-methyl-urea] was run?
**A.** 44%
